# Where “and” joins values, the source holds several entries; their conditions need not be identical. Identical values can stand only once.
# Tested on: M. tuberculosis H37Rv (ATCC 27294)
# Assay: In vitro anti-tuberculosis screening, BACTEC 460 radiometric system, percent inhibition of growth
# Assay type: cell-based, Mycobacterium tuberculosis
# Conditions: Mtb H37Rv, 12.5 μg/mL
Compound,anti-TB activity in words,increase in activity compared to 92
O=c1cc(-c2ccccc2)oc2cc(Br)ccc12 [Compound 106],weakly active or inactive,–
O=c1cc(-c2ccccc2)oc2cc(Cl)ccc12 [Compound 122],weakly active or inactive,–
"O=c1cc(-c2cccc(-c3cccc4c(=O)cc(-c5ccccc5)oc34)c2)oc2ccccc12 [Compound 155, 3′-8′′-Biflavone]",moderate activity,–
COc1ccc(-c2oc3cc(F)ccc3c(=O)c2O)cc1 [Compound 85],did not change the activity,–
O=c1cc(-c2ccccc2)oc2cc(I)ccc12 [Compound 102],weakly active or inactive,–
COc1ccc(-c2oc3ccc(Cl)cc3c(=O)c2O)cc1 [Compound 87],did not change the activity,–
"COc1ccc(-c2oc3ccccc3c(=O)c2O)cc1 [Compound 88, 4′-methoxyflavonol]",–,10%
O=c1c(I)c(-c2ccccc2)oc2ccccc12 [Compound 127],weakly active or inactive,–
"COc1ccc(-c2oc3cc(OC)cc(OC)c3c(=O)c2-c2c(-c3ccc(OC)cc3)oc3cc(OC)cc(OC)c3c2=O)cc1 [Compound 159, 3-3″-Biapigenin hexamethylether]",completely devoid of activity,–

# Same assay, conditions: Mtb H37Rv, 12.5 μg/mL, BACTEC 12B medium
Compound,Activity % Inhibition at 12.5 μg/mL (flavones),Activity % Inhibition at 12.5 μg/mL (flavanones),Activity % Inhibition at 12.5 μg/mL (biflavonoids),Activity % inhibition at 12.5 μg/mL (chalcones),Activity % inhibition at 12.5 μg/mL (chalcone-like compounds)
COc1cc(OC)c2c(=O)cc(-c3ccc(OC)c(I)c3)oc2c1 [Compound 126],0%,–,–,–,–
COc1ccc2c(c1)OC(c1cccc([N+](=O)[O-])c1)CC2=O (stereo not shown) [Compound 147],–,0%,–,–,–
O=C(O)c1ccc2c(c1)C(=O)CC(c1ccccc1)O2 (stereo not shown) [Compound 146],–,0%,–,–,–
"COc1ccc2c(c1)OC(c1ccccc1)C(C1C(=O)c3ccc(OC)cc3OC1c1ccccc1)C2=O (stereo not shown) [Compound 160, 3-3″-Bi-(7-methoxyflavanone)]",–,–,0%,–,–
Nc1ccc(O)c(C(=O)/C=C/c2ccccc2)c1 [Compound 12],–,–,–,6%,–
O=c1cc(-c2ccccc2)oc2c(Br)cccc12 [Compound 77],66%,–,–,–,–
COc1ccc(/C=C/C(=O)c2c(O)cccc2OC)cc1 [Compound 2],–,–,–,75%,–
O=c1c(Br)c(-c2ccccc2)oc2ccccc12 [Compound 108],13%,–,–,–,–
COc1ccc(-c2cc(=O)c3c(OC)cc(OC)c(I)c3o2)cc1 [Compound 125],0%,–,–,–,–
COc1ccc2c(c1)OC(c1ccc(Cl)cc1)CC2=O (stereo not shown) [Compound 137],–,48%,–,–,–
O=c1c(O)c(-c2ccccc2)oc2cc(Cl)ccc12 [Compound 81],58%,–,–,–,–
O=c1cc(-c2ccccc2)oc2cc(Br)ccc12 [Compound 106],15%,–,–,–,–
"COc1ccc(-c2cc(=O)c3c(OC)cc(OC)c([C@@H]4C(=O)c5c(OC)cc(OC)cc5O[C@H]4c4ccc(OC)cc4)c3o2)cc1 [Compound 152, Volkensiflavone hexamethylether]",–,–,95%,–,–
"O=C1C[C@@H](c2ccc(O)c(O)c2)Oc2c1c(O)cc(O)c2[C@H]1C(=O)c2c(O)cc(O)cc2O[C@@H]1c1ccc(O)cc1 [Compound 172, GB-2a]",–,–,0%,–,–
COc1ccc2c(=O)c(Br)c(-c3ccc(Cl)cc3)oc2c1 [Compound 103],19%,–,–,–,–
"COc1ccc([C@@H]2CC(=O)c3c(OC)cc(OC)c([C@H]4C(=O)c5c(OC)cc(OC)cc5O[C@@H]4c4ccc(OC)cc4)c3O2)cc1 [Compound 153, GB-1a hexamethylether]",–,–,87%,–,–
O=c1cc(-c2ccccc2)oc2cc(Cl)ccc12 [Compound 122],0%,–,–,–,–
COc1ccc(/C=C/C(=O)c2cccc(I)c2O)cc1 [Compound 49],–,–,–,0%,–
"O=C1c2c(O)cc(O)cc2OC(c2ccc(O)cc2)C1c1c(O[C@@H]2O[C@H](CO)[C@@H](O)[C@H](O)[C@H]2O)cc(O)c2c(=O)cc(-c3ccc(O)cc3)oc12 (stereo partly shown) [Compound 176, Spicataside]",–,–,0%,–,–
Nc1ccc(C(=O)/C=C/c2ccccc2)cc1 [Compound 13],–,–,–,5%,–
COc1ccc(-c2cc(=O)c3cc(I)ccc3o2)cc1 [Compound 107],15%,–,–,–,–

Compound,Activity % Inhibition at 12.5 μg/mL (flavones),Activity % Inhibition at 12.5 μg/mL (flavanones),Activity % Inhibition at 12.5 μg/mL (biflavonoids),Activity % inhibition at 12.5 μg/mL (chalcones),Activity % inhibition at 12.5 μg/mL (chalcone-like compounds)
COc1ccc(-c2cc(=O)c3ccc(F)cc3o2)cc1 [Compound 118],0%,–,–,–,–
Nc1ccccc1/C=C/C(=O)c1ccc(Br)cc1O [Compound 38],–,–,–,12%,–
O=C(/C=C/c1ccccc1)c1ccc(I)cc1O [Compound 45],–,–,–,21%,–
COc1ccc(/C=C/C(=O)c2cccc(F)c2O)cc1 [Compound 23],–,–,–,45%,–
"O=c1cc(-c2ccccc2)oc2ccc(-c3ccccc3-c3cc(=O)c4ccccc4o3)cc12 [Compound 156, 6-2′′′′-Biflavone]",–,–,9%,–,–
O=c1c(O)c(-c2cccc(Br)c2)oc2ccccc12 [Compound 80],60%,–,–,–,–
"O=c1cc(-c2cccc(-c3cccc4c(=O)cc(-c5ccccc5)oc34)c2)oc2ccccc12 [Compound 155, 3′-8′′-Biflavone]",–,–,49%,–,–
COc1ccc(-c2oc3cc(F)ccc3c(=O)c2O)cc1 [Compound 85],50%,–,–,–,–
COc1ccc(-c2oc3c(I)cccc3c(=O)c2O)cc1 [Compound 113],6%,–,–,–,–
Nc1cccc(/C=C/C(=O)c2ccccc2O)c1 [Compound 11],–,–,–,11%,–
O=C(/C=C/c1cc2ccccc2[nH]1)c1ccncc1 [Compound 64],–,–,–,–,12%
COc1ccc(C=CC(=O)c2ccc(F)cc2O)cc1 [Compound 22],–,–,–,63%,–
O=C(c1ccccc1)c1ccc2c(=O)c(C(=O)c3ccccc3)c(-c3ccccc3)oc2c1 [Compound 110],12%,–,–,–,–
COc1ccc(C(=O)/C=C/c2ccncc2)cc1 [Compound 70],–,–,–,–,0%
O=C(/C=C/c1ccco1)c1ccc(Br)cc1O [Compound 63],–,–,–,–,17%
Nc1ncccc1/C=C/C(=O)c1cc2ccccc2cc1O [Compound 74],–,–,–,–,0%
O=c1cc(-c2ccccc2)oc2cc(I)ccc12 [Compound 102],20%,–,–,–,–
Nc1ccc(C(=O)/C=C/c2cccnc2N)cc1 [Compound 66],–,–,–,–,7%
COc1ccccc1C=CC(=O)c1ccccc1O [Compound 8],–,–,–,39%,–
O=C(/C=C/c1ccccc1Br)c1ccccc1O [Compound 31],–,–,–,83%,–
O=C1CC(c2ccccc2)Oc2ccc(Cl)cc21 (stereo not shown) [Compound 138],–,30%,–,–,–

Compound,Activity % Inhibition at 12.5 μg/mL (flavones),Activity % Inhibition at 12.5 μg/mL (flavanones),Activity % Inhibition at 12.5 μg/mL (biflavonoids),Activity % inhibition at 12.5 μg/mL (chalcones),Activity % inhibition at 12.5 μg/mL (chalcone-like compounds)
COc1ccc(-c2cc(=O)c3ccccc3o2)cc1 [Compound 93],29%,–,–,–,–
COc1ccc(C2CC(=O)c3cc(C(=O)O)ccc3O2)cc1 (stereo not shown) [Compound 145],–,0%,–,–,–
COc1ccc(C(=O)/C=C/c2ccco2)c(O)c1 [Compound 65],–,–,–,–,3%
"O=C1CC(c2ccc(O)c(O)c2)Oc2c1c(O)cc(OC1OC(CO)C(O)C(O)C1O)c2C1C(=O)c2c(O)cc(O)cc2OC1c1ccc(O)cc1 (stereo not shown) [Compound 179, Xanthochymuside]",–,–,0%,–,–
COc1ccc(-c2oc3ccc(Cl)cc3c(=O)c2O)cc1 [Compound 87],48%,–,–,–,–
COc1c(-c2ccccc2)oc2ccc(Br)cc2c1=O [Compound 89],44%,–,–,–,–
O=c1c(I)c(-c2ccccc2)oc2ccccc12 [Compound 127],0%,–,–,–,–
COc1cc(OC)c2c(=O)cc(-c3ccc(O)cc3)oc2c1 [Compound 132],0%,–,–,–,–
Nc1ncccc1C=CC(=O)c1cc(Cl)ccc1O [Compound 72],–,–,–,–,0%
O=c1cc(-c2ccc(Cl)c([N+](=O)[O-])c2)oc2ccccc12 [Compound 95],28%,–,–,–,–
CN(C)c1ccc(/C=C/C(=O)c2ccncc2)cc1 [Compound 68],–,–,–,–,1%
"COc1ccc(-c2oc3cc(OC)cc(OC)c3c(=O)c2-c2c(-c3ccc(OC)cc3)oc3cc(OC)cc(OC)c3c2=O)cc1 [Compound 159, 3-3″-Biapigenin hexamethylether]",–,–,0%,–,–
O=c1c(O)c(-c2ccccc2)oc2ccc(Br)cc12 [Compound 82],58%,–,–,–,–
COc1ccc(C(=O)/C=C/c2cccnc2)cc1 [Compound 71],–,–,–,–,0%
O=C1CC(c2ccccc2)Oc2ccc(I)cc21 (stereo not shown) [Compound 139],–,27%,–,–,–
O=C(O)c1ccc(O)c(C(=O)C=Cc2cccc(I)c2)c1 [Compound 50],–,–,–,0%,–
COc1ccc(/C=C/C(=O)c2cc(I)ccc2O)cc1 [Compound 48],–,–,–,0%,–
CC(=O)Nc1cccc(/C=C/C(=O)c2ccccc2O)c1 [Compound 17],–,–,–,0%,–
6-2′′′-Biapigenin [Compound 158],–,–,1%,–,–
COc1ccc(-c2cc(=O)c3ccc(OC)cc3o2)cc1 [Compound 119],0%,–,–,–,–

# Same assay, conditions: Mtb H37Rv, drug concentration 12.5 μg/mL
row,Compound,inhibition of the growth of Mtb
1,Nc1ccc(O)c(C(=O)/C=C/c2ccccc2)c1 [Compound 12],6%
2,"COc1ccc(-c2cc(=O)c3c(OC)cc(OC)c([C@@H]4C(=O)c5c(OC)cc(OC)cc5O[C@H]4c4ccc(OC)cc4)c3o2)cc1 [Compound 152, Volkensiflavone hexamethylether]",95%
3,"COc1ccc([C@@H]2CC(=O)c3c(OC)cc(OC)c([C@H]4C(=O)c5c(OC)cc(OC)cc5O[C@@H]4c4ccc(OC)cc4)c3O2)cc1 [Compound 153, GB-1a hexamethylether]",87%
4,COc1ccc(/C=C/C(=O)c2cccc(I)c2O)cc1 [Compound 49],0%
5,Nc1ccccc1/C=C/C(=O)c1ccc(Br)cc1O [Compound 38],8% and 12%
6,O=C(/C=C/c1ccccc1)c1ccc(I)cc1O [Compound 45],21%
7,O=C(/C=C/c1ccccc1Br)c1ccccc1O [Compound 31],83%
8,O=C(O)c1ccc(O)c(C(=O)C=Cc2cccc(I)c2)c1 [Compound 50],0%
9,COc1ccc(/C=C/C(=O)c2cc(I)ccc2O)cc1 [Compound 48],0%

# Same assay, conditions: Mycobacterium tuberculosis, Mtb H37Rv, 12.5 μg/mL, BACTEC 12B medium; read-out: Activity % Inhibition at 12.5 μg/mL (biflavonoids)
row,Compound,inhibition at 12.5 µg/mL
1,"O=c1cc(-c2ccc(O)c(-c3c(O)cc(O)c4c(=O)cc(-c5ccc(O)cc5)oc34)c2)oc2cc(O)cc(O)c12 [Compound 164, Amentoflavone]",0%

# Same assay, conditions: Mycobacterium tuberculosis, Mtb H37Rv, 12.5 μg/mL, BACTEC 12B medium; read-out: Activity % Inhibition at 12.5 μg/mL (flavones)
row,Compound,inhibition at 12.5 µg/mL
1,"O=c1c(O)c(-c2ccccc2)oc2ccccc12 [Compound 92, 3-hydroxyflavone]",38%
2,"COc1ccc(-c2oc3ccccc3c(=O)c2O)cc1 [Compound 88, 4′-methoxyflavonol]",48%

# Same assay, conditions: Mycobacterium tuberculosis, Mtb H37Rv, drug concentration 12.5 μg/mL; read-out: inhibition of the growth of Mtb
row,Compound,inhibition at 12.5 µg/mL
1,"O=C(/C=C/c1cccc(I)c1)c1cccc(Br)c1O [Compound 51, 3′-bromo-2′-hydroxy-3-iodochalcone]",0%
2,"O=c1c(O)c(-c2ccccc2)oc2ccccc12 [Compound 92, 3-hydroxyflavone]",38%

# Reference: patent US6677350B1, “Beta-fluoroethyl thiourea compounds and use” (priority 1999, dated 2004)
